Results taken from publication PMC3060605 (Nature Communications, 2010).
pKi: −log10 of the molar value.

Target: N1 (A/HongKong/156/97 (H5N1)) sialidase (Influenza A virus, UniProt Q9W7Y7)
Experiment: biochemical

Chain of N1 (A/HongKong/156/97 (H5N1)) sialidase (Q9W7Y7 whole entry, looked up): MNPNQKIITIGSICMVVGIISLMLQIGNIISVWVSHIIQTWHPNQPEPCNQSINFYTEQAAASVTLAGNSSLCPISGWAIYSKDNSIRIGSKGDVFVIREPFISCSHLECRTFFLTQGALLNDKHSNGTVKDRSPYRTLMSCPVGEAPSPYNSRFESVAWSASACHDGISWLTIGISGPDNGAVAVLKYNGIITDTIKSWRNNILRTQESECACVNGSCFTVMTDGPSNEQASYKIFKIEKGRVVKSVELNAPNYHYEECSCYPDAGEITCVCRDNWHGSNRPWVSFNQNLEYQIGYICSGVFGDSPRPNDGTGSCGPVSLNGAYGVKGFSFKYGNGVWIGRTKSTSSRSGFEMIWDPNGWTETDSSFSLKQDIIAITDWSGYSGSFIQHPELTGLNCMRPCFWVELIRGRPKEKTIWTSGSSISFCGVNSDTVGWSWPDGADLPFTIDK

`CC(=O)N[C@H]1[C@H]([C@H](O)[C@H](O)CO)OC(C(=O)O)=C[C@@H]1N=C(N)N` [Compound 1, zanamivir] showed a pKi of 9.77.
